Data reported in patent US10494402B2, “Peptides that stimulate subcutaneous adipogenesis” (The Regents of the University of California, priority 2012, dated 2019).

What was measured:
[1] = system: 2D rat Pre-adipocytes (rat mesenchymal stem cells); experiment: Adipogenic potential ranking in 2D tissue culture, rat pre-adipocytes; assay type: cell-based; conditions: ranked on a scale of 0-5 with 5 representing the highest possible score
Method: (§1) Examples of the adipogenic effects of RHAMM antagonists (peptide B (SEQ ID NO: 2), peptide P15-1 (SEQ ID NO. 1), and the antibody to peptide B) are summarized in Table 1. Peptide P15-1, peptide B, and a RHAMM antibody were assayed for their effects on pre-adipocyte stem cells in culture and when injected into the dermis of aged rats. Reagents were ranked on a scale of 0-5 with 5 representing the highest possible score and a completely filled in Harvey ball. “2D” refers to two-dimensional tissue culture.

2D human Pre-adipocytes = experiment: Adipogenic potential ranking in 2D tissue culture, human pre-adipocytes; assay type: cell-based; conditions: scale of 0-5, 5 highest
Method: as §1

nude guinea pigs = experiment: Subcutaneous fat deposition in nude guinea pigs; assay type: in vivo, guinea pig; conditions: injection on upper back and in ear fat pad; control collagen gel vehicle only
Method: Peptide B (SEQ ID NO: 2) was also tested for its effect in nude guinea pigs since their skin structure resembles human facial skin. In particular, the skin of this animal model is more similar to human skin than is rat skin, in that it is hairless and the keratinocyte layer is thicker than in the rat model. […] Thus, peptide B was effective in promoting adipogenesis in this nude guinea pig model.

Human pre-adipocytes = experiment: Adipogenesis in 3D collagen gel culture; assay type: cell-based; conditions: 3D collagen gels in the presence of adipogenic cocktail
Method: The adipogenic activity of peptide B (SEQ ID NO:2) was also examined using a three-dimensional (3D) culture system that models human skin.
Human pre-adipocytes were cultured in 3D collagen gels in the presence of the adipogenic cocktail described above (Adipocyte Differentiation Medium (ZenBio catalog no. DM-2)) and exposed to peptide B (SEQ ID NO: 2). […] The 3D results predict the ability of the B peptide to promote adipogenesis in vivo.

RHAMM = experiment: Blocking of RHAMM function; conditions: competitive blocker / direct binding
Text: We hypothesized that the fragment and the antibody were blocking RHAMM function by competitive inhibition and by direct binding/blocking of RHAMM, respectively. Using truncation analyses, the size of the peptide was further reduced to 32 amino acids ([…] (SEQ ID NO: 92)) and it was shown that adipogenic activity is localized to a 15 amino acid peptide (KLKDENSQLKSEVSK (SEQ ID NO: 2); “peptide B” or “B-1” herein) shown in FIG. 2. This peptide was chemically synthesized to use as a competitive blocker, and antibodies were prepared against this sequence tagged with keyhold lymphocyte hemacyanin (KLH) to directly bind/block RHAMM function.

[2] = system: Female Fisher retired breeder rats; experiment: In vivo adipogenic activity in female retired breeder rat model; conditions: 100 μg subcutaneous in 1 ml collagen vehicle; 7 days
Method: The adipogenic activity of the KSEVSK 6-mer (SEQ ID NO: 3) was also evaluated in vivo in a female retired breeder rat model. Female Fisher retired breeder rats (>9 months old) were used in these studies. The rats were injected subcutaneously with a 100 μg dose of the KSEVSK 6-mer peptide in 1 ml of a collagen vehicle or with collagen vehicle alone. The collagen vehicle contained 1 mg/ml of rat tail Type I collagen. […] Rats were injected with KSEVSK 6-mer peptide and collagen vehicle at sites A and C and with collagen vehicle only at sites B and D. Animals were maintained on a regular diet for 7 days and then euthanized Skin was harvested by cutting around the injected area, ensuring that underlying adipose tissue was retained with the skin at the injection sites. The tissue was then photographed and fat accumulation was assessed.

Substance | adipogenic potential, 2D rat Pre-adipocytes (rat mesenchymal stem cells) [1] | adipogenic potential, 2D human Pre-adipocytes (2D human Pre-adipocytes) | subcutaneous fat deposition (H and E staining) (nude guinea pigs) | adipogenesis (light refractory lipid droplets) (Human pre-adipocytes) | RHAMM function (RHAMM) | fat pad surface area vs collagen vehicle alone [2]
KLKDENSQLKSEVSK [peptide B] | 5 | 5 | increase in subcutaneous fat deposition | promoted adipogenesis | effectively block RHAMM function | 
KSEVSK [KSEVSK 6-mer] |  |  |  |  |  | significantly larger
